{
  "source": "the supplement of paper PMC10307832",
  "data": [
    {"compound": "COc1cc2nc(N3CCCN(C)CC3)nc(NC3CCN(Cc4ccccc4)CC3)c2cc1OC + C[C@@H](Oc1cc(-c2cnn(C3CCNCC3)c2)cnc1N)c1c(Cl)ccc(F)c1Cl [Crizotinib] (partner 1 µM)", "assay": "relative viability (nuclei count vs DMSO), 5 days (fraction); higher = more cells survive", "conditions": "first compound 0.2 µM", "outline": "(§1)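 Lung cancer cell lines in 1536-well plates were dosed by pin tool the day after seeding, either with one drug alone or with a fixed anchor-drug dose plus five library-drug doses (not always all listed) in √10 steps. After 5 days, cells were fixed and their nuclei stained in one step (final 0.05% Triton X-100, 1% formaldehyde, 1 ug/ml Hoechst), then counted on 4× images. Relative viability is the nuclei count in treated wells divided by that in vehicle wells. Values are medians of duplicate plates.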", "values": [
      {"cell line": "NCI-H727", "relative viability": 0.757},
      {"cell line": "NCI-H1650", "relative viability": 1},
      {"cell line": "EBC-1", "relative viability": 0.241},
      {"cell line": "NCI-H1703", "relative viability": 1},
      {"cell line": "NCI-H1993", "relative viability": 0.796},
      {"cell line": "SW 1573", "relative viability": 0.893},
      {"cell line": "NCI-H838", "relative viability": 0.81},
      {"cell line": "LCLC-103H", "relative viability": 1},
      {"cell line": "NCI-H520", "relative viability": 0.714},
      {"cell line": "NCI-H2126", "relative viability": 0.978},
      {"cell line": "EMC-BAC-2", "relative viability": 0.729},
      {"cell line": "NCI-H2085", "relative viability": 0.866},
      {"cell line": "Calu-6", "relative viability": 0.75},
      {"cell line": "HCC-366", "relative viability": 0.566},
      {"cell line": "NCI-H1666", "relative viability": 0.969},
      {"cell line": "NCI-H596", "relative viability": 0.998},
      {"cell line": "LK-2", "relative viability": 0.233},
      {"cell line": "NCI-H2087", "relative viability": 0.929},
      {"cell line": "SK-MES-1", "relative viability": 0.97},
      {"cell line": "H3255", "relative viability": 0.781},
      {"cell line": "COR-L23", "relative viability": 0.471},
      {"cell line": "COR-L 105", "relative viability": 0.653},
      {"cell line": "LOU-NH91", "relative viability": 0.701},
      {"cell line": "ChaGo-K-1", "relative viability": 1.18},
      {"cell line": "NCI-H2170", "relative viability": 1.19},
      {"cell line": "NCI-H2405", "relative viability": 0.869},
      {"cell line": "HOP-62", "relative viability": 0.936},
      {"cell line": "HCC-44", "relative viability": 0.839},
      {"cell line": "A549", "relative viability": 0.803},
      {"cell line": "LU99A", "relative viability": 0.563},
      {"cell line": "BEN", "relative viability": 0.923},
      {"cell line": "HARA", "relative viability": 1.01},
      {"cell line": "HCC-78", "relative viability": 0.333},
      {"cell line": "NCI-H322M", "relative viability": 0.873},
      {"cell line": "LCLC-97TM1", "relative viability": 0.252},
      {"cell line": "NCI-H441", "relative viability": 0.656},
      {"cell line": "NCI-H1299", "relative viability": 0.945}
    ]},
    {"compound": "COc1cc2nc(N3CCCN(C)CC3)nc(NC3CCN(Cc4ccccc4)CC3)c2cc1OC + C[C@@H](Oc1cc(-c2cnn(C3CCNCC3)c2)cnc1N)c1c(Cl)ccc(F)c1Cl [Crizotinib] (partner 1 µM)", "assay": "relative viability (nuclei count vs DMSO), 5 days (fraction); higher = more cells survive", "conditions": "first compound 0.6325 µM", "outline": "as §1", "values": [
      {"cell line": "NCI-H727", "relative viability": 0.752},
      {"cell line": "NCI-H1650", "relative viability": 0.903},
      {"cell line": "EBC-1", "relative viability": 0.181},
      {"cell line": "NCI-H1703", "relative viability": 0.45},
      {"cell line": "NCI-H1993", "relative viability": 0.839},
      {"cell line": "SW 1573", "relative viability": 0.845},
      {"cell line": "NCI-H838", "relative viability": 0.878},
      {"cell line": "LCLC-103H", "relative viability": 0.973},
      {"cell line": "NCI-H520", "relative viability": 0.664},
      {"cell line": "NCI-H2126", "relative viability": 0.969},
      {"cell line": "EMC-BAC-2", "relative viability": 0.747},
      {"cell line": "NCI-H2085", "relative viability": 0.842},
      {"cell line": "Calu-6", "relative viability": 0.676},
      {"cell line": "HCC-366", "relative viability": 0.515},
      {"cell line": "NCI-H1666", "relative viability": 0.958},
      {"cell line": "NCI-H596", "relative viability": 1.09},
      {"cell line": "LK-2", "relative viability": 0.237},
      {"cell line": "NCI-H2087", "relative viability": 0.646},
      {"cell line": "SK-MES-1", "relative viability": 0.962},
      {"cell line": "H3255", "relative viability": 0.894},
      {"cell line": "COR-L23", "relative viability": 0.562},
      {"cell line": "COR-L 105", "relative viability": 0.872},
      {"cell line": "IA-LM", "relative viability": 0.802},
      {"cell line": "LOU-NH91", "relative viability": 0.742},
      {"cell line": "ChaGo-K-1", "relative viability": 1.11},
      {"cell line": "NCI-H2170", "relative viability": 1.17},
      {"cell line": "NCI-H2405", "relative viability": 0.825},
      {"cell line": "HOP-62", "relative viability": 0.822},
      {"cell line": "HCC-44", "relative viability": 0.721},
      {"cell line": "A549", "relative viability": 0.638},
      {"cell line": "LU99A", "relative viability": 0.576},
      {"cell line": "BEN", "relative viability": 0.892},
      {"cell line": "HARA", "relative viability": 1.02},
      {"cell line": "HCC-78", "relative viability": 0.377},
      {"cell line": "NCI-H322M", "relative viability": 1.01},
      {"cell line": "NCI-H1299", "relative viability": 0.976}
    ]},
    {"compound": "COc1cc2nc(N3CCCN(C)CC3)nc(NC3CCN(Cc4ccccc4)CC3)c2cc1OC + C[C@@H](Oc1cc(-c2cnn(C3CCNCC3)c2)cnc1N)c1c(Cl)ccc(F)c1Cl [Crizotinib] (partner 1 µM)", "assay": "relative viability (nuclei count vs DMSO), 5 days (fraction); higher = more cells survive", "conditions": "first compound 2 µM", "outline": "as §1", "values": [
      {"cell line": "NCI-H727", "relative viability": 1.13},
      {"cell line": "NCI-H1650", "relative viability": 1.2},
      {"cell line": "EBC-1", "relative viability": 0.147},
      {"cell line": "NCI-H1703", "relative viability": 0.868},
      {"cell line": "NCI-H1993", "relative viability": 0.882},
      {"cell line": "SW 1573", "relative viability": 0.88}
    ]}
  ]
}
